We go through seven compounds from patent US20210009564A1, “CALPAIN MODULATORS AND THERAPEUTIC USES THEREOF” (BLADE THERAPERTICS, INC., priority 2018, published 2021).

The subject of experiment [1] is Calpain activity in SH-SY5Y cells. Description: SH-SY5Y spectrin breakdown product (SBDP-150) western blot assay. It counts as cell-based. To be noted: Homo sapiens; SH-SY5Y cells, 25 uM A23187, SBDP-150 western blot; read-out: SH-SY5Y Spectrin IC50.
Experiment [2] has the same test system. Description: SH-SY5Y Suc-LLVY-AMC fluorescence assay. It counts as cell-based. The settings on record: Homo sapiens; SH-SY5Y cells, 100 uM Suc-LLVY-AMC; read-out: SH-SY5Y + AMC IC50.
Experiment [3] deals with T1, Human Calpain 9/NS1 (Homo sapiens, UniProt O14815).
T1 sequence (O14815 1-690): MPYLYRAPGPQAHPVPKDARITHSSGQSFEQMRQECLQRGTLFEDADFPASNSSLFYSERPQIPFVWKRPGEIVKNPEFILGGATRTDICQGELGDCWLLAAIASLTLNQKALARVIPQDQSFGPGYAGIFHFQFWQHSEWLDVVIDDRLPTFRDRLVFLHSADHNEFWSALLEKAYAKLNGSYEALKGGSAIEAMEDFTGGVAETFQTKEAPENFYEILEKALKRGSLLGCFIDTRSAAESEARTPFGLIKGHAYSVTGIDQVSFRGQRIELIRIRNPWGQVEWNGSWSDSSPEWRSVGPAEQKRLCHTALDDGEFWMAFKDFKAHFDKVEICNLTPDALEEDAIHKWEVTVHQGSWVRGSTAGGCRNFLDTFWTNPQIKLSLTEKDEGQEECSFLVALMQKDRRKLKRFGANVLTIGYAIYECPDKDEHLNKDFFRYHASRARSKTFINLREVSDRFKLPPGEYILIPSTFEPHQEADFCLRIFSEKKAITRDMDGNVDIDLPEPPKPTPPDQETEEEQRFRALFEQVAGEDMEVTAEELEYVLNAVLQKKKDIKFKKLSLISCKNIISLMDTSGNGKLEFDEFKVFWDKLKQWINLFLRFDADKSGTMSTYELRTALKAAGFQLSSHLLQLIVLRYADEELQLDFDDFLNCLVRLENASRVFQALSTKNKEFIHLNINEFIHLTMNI
T1 sequence (P04632 1-268 partner): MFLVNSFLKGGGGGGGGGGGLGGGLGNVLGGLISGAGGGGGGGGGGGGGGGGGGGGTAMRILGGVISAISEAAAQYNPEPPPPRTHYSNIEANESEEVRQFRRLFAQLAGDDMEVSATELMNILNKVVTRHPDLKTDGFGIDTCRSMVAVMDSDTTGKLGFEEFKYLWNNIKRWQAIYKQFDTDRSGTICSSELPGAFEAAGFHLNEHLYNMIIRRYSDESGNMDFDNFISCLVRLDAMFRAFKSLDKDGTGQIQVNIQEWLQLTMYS
Description: Calpain inhibition, continuous fluorescence (FRET substrate) assay, calpain 9. Format: biochemical. The settings on record: SensoLyte 520 FRET substrate, 25C. In a few lines: (§1)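 Calpains preincubated with serially diluted inhibitors at 25 °C in 50 mM Tris pH 7.5, 100 mM NaCl, 1 mM DTT; CaCl2 plus 5-FAM/QXL 520 FRET substrate started the reaction. Fluorescence (490/520 nm) read 10 min; rates from 1-5 min slopes, IC50 from 4-parameter logistic fit.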

Experiment [4] has as its target T2, Human Calpain 2/NS1 (Homo sapiens, UniProt P17655).
T2 sequence (P17655 1-700): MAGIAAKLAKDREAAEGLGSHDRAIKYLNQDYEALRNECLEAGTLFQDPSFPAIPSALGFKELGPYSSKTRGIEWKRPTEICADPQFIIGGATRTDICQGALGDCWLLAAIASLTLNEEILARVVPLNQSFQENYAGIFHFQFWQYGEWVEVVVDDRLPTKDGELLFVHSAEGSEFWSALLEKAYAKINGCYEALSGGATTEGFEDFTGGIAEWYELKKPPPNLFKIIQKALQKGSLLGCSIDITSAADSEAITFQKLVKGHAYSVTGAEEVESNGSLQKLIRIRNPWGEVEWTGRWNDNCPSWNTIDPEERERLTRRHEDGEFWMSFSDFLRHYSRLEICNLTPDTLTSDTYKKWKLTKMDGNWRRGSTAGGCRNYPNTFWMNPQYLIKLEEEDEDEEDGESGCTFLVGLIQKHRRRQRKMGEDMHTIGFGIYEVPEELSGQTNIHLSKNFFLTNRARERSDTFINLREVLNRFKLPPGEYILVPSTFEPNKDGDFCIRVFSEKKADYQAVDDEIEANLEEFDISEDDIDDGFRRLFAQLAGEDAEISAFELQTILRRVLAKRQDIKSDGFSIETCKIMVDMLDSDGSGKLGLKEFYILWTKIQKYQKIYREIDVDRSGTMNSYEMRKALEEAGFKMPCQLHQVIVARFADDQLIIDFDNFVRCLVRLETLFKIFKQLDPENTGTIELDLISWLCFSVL
T2 sequence (P04632 1-268 partner): T1 sequence (P04632 1-268 partner)
Description: Calpain inhibition, continuous fluorescence (FRET substrate) assay, calpain 2. It counts as biochemical. The settings on record: SensoLyte 520 FRET substrate, 25C. In a few lines:
as §1

In experiment [5] the target is T3, Human Calpain 1/NS1 (Homo sapiens, UniProt P07384).
T3 sequence (P07384 1-714): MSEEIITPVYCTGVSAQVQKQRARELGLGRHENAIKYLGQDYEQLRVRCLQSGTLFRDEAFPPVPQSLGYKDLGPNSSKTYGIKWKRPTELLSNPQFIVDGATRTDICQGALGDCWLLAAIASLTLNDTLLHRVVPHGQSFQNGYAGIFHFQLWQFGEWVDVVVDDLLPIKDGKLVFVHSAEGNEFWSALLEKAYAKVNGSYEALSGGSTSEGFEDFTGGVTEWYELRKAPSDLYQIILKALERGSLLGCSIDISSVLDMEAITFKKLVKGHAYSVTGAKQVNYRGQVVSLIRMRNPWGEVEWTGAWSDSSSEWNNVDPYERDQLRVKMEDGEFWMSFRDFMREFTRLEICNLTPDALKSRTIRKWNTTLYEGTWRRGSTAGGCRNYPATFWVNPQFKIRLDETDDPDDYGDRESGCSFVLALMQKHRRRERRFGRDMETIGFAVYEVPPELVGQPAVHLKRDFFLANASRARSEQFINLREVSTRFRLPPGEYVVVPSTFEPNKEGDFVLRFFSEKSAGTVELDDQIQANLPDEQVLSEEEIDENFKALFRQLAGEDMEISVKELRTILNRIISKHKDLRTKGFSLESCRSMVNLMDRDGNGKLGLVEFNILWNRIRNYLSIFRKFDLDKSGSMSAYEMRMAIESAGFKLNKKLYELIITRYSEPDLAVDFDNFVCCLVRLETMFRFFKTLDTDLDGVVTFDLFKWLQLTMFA
T3 sequence (P04632 1-268 partner): T1 sequence (P04632 1-268 partner)
Description: Calpain inhibition, continuous fluorescence (FRET substrate) assay, calpain 1. The settings on record: SensoLyte 520 FRET substrate, 25C. It counts as biochemical. The method, boiled down:
as §1

The term IC50 denotes the concentration at which inhibition is half-maximal. For the compound `Cc1nc(-c2cc(Cl)oc2C)c(C(=O)NC(Cc2ccccc2)C(=O)C(N)=O)o1` (centres unmarked) [Compound 98, N-(4-AMINO-3,4-DIOXO-1-PHENYLBUTAN-2-YL)-4-(5-CHLORO-2-METHYLFURAN-3-YL)-2-METHYLOXAZOLE-5-CARBOXAMIDE], the IC50 is 10 to 25 µM in experiment [1]; less than 10 µM in experiment [2]; less than 3 µM in experiment [3]; less than 3 µM in experiment [4]; less than 3 µM in experiment [5].
On to `Cn1cc(C(=O)NC(Cc2ccccc2)C(=O)C(N)=O)c(-c2cccc3cn(C)nc23)n1` (centres unmarked) [Compound 99, N-(4-AMINO-3,4-DIOXO-1-PHENYLBUTAN-2-YL)-1-METHYL-3-(2-METHYL-2H-INDAZOL-7-YL)-1H-PYRAZOLE-4-CARBOXAMIDE], for which the IC50 in experiment [1] was greater than 25 µM; in experiment [2], greater than 25 µM; in experiment [3], less than 3 µM; in experiment [4], less than 3 µM; in experiment [5], less than 3 µM.
Consider `CC(C)n1ncc2c(-c3nn(C)cc3C(=O)NC(Cc3ccccc3)C(=O)C(N)=O)cccc21` (centres unmarked) [Compound 100, N-(4-AMINO-3,4-DIOXO-1-PHENYLBUTAN-2-YL)-3-(1-ISOPROPYL-1H-INDAZOL-4-YL)-1-METHYL-1H-PYRAZOLE-4-CARBOXAMIDE], for which the IC50 was 10 to 25 µM in experiment [1]; 10 to 25 µM in experiment [2]; less than 3 µM in experiment [3]; less than 3 µM in experiment [4]; less than 3 µM in experiment [5].
Regarding `Cn1cc(C(=O)NC(Cc2ccccc2)C(=O)C(N)=O)c(-c2cccc3ccsc23)n1` (centres unmarked) [Compound 101, N-(4-AMINO-3,4-DIOXO-1-PHENYLBUTAN-2-YL)-3-(BENZO[b]THIOPHEN-7-YL)-1-METHYL-1H-PYRAZOLE-4-CARBOXAMIDE], the IC50 in experiment [1] is less than 10 µM; in experiment [2], 10 to 25 µM; in experiment [3], less than 3 µM; in experiment [4] it was less than 3 µM; in experiment [5], less than 3 µM.
Consider `Cn1cc(C(=O)NC(Cc2ccccc2)C(=O)C(N)=O)c(-c2cccc3sccc23)n1` (centres unmarked) [Compound 102, N-(4-AMINO-3,4-DIOXO-1-PHENYLBUTAN-2-YL)-3-(BENZO[b]THIOPHEN-4-YL)-1-METHYL-1H-PYRAZOLE-4-CARBOXAMIDE], for which the IC50 is less than 10 µM in experiment [1]; greater than 25 µM in experiment [2]; less than 3 µM in experiment [3]; less than 3 µM in experiment [4]; less than 3 µM in experiment [5].
`CC(C)n1c(=O)[nH]c2c(-c3nn(C)cc3C(=O)NC(Cc3ccccc3)C(=O)C(N)=O)cccc21` (centres unmarked) [Compound 103, N-(4-AMINO-3,4-DIOXO-1-PHENYLBUTAN-2-YL)-3-(1-ISOPROPYL-2-OXO-2,3-DIHYDRO-1H-BENZO[D]IMIDAZOL-4-YL)-1-METHYL-1H-PYRAZOLE-4-CARBOXAMIDE]: the IC50 is less than 10 µM in experiment [1]; 10 to 25 µM in experiment [2]; less than 3 µM in experiment [3]; less than 3 µM in experiment [4]; less than 3 µM in experiment [5].
As for `O=C(NC(Cc1ccccc1)C(=O)c1nc[nH]n1)c1nsnc1-c1ccccc1` (centres unmarked) [Compound 104, N-(1-OXO-3-PHENYL-1-(H-1,2,4-TRIAZOL-3-YL)PROPAN-2-YL)-4-PHENYL-1,2,5-THIADIAZOLE-3-CARBOXAMIDE], the IC50 is greater than 25 µM in experiment [1]; greater than 25 µM in experiment [2]; greater than 10 µM in experiment [3]; greater than 10 µM in experiment [4]; greater than 10 µM in experiment [5].
